Source: patent publication US9758526B2, “Quinoline-substituted compound” (TAIHO PHARMACEUTICAL CO., LTD., priority 2013, dated 2017)

Key:
EGFR (d746-750) = target: T1, EGFR (d746-750) (Homo sapiens, UniProt P00533, DEL746-750); experiment: EGFR (d746-750) kinase inhibitory activity; format: biochemical; conditions: ATP 5 μM, kinase reaction 90 minutes
T1 construct: purchased Carna Biosciences, Inc
Summary of the method: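 Recombinant human EGFR (d746-750) with 250 nM biotinylated peptide, 5 μM ATP, 10 mM MgCl2 and 10 mM MnCl2, 2.5% DMSO, reacted 90 min at 25° C., stopped with EDTA. Phosphotyrosine detected by TR-FRET (Eu-PT66 antibody/APC-streptavidin, 665/620 nm ratio), with EDTA-pre-stopped background; IC50 (nM) from inhibition curve fit.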

[1] = tested on: A431 expressing EGFR (WT); experiment: Growth inhibition, A431 expressing EGFR (WT); format: cell-based; conditions: Homo sapiens, A-431, 72 h; cultured three days, CellTiter-Glo
Summary of the method: (§1)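 Cells seeded and grown 1 day, then exposed 3 days at 37 °C/5% CO2 to serial dilutions (final DMSO 0.2%). CellTiter-Glo luminescence was read before dosing and after 3 days; GI50 from inhibition (C−T)/(C−C0)×100 by curve fitting.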

[2] = tested on: HCC827 expressing EGFR (d746-750); experiment: Growth inhibition, HCC827 expressing EGFR (d746-750); format: cell-based; conditions: Homo sapiens, HCC827, 72 h; cultured three days, CellTiter-Glo
Summary of the method: as §1

[3] = tested on: NCI-H1975 expressing EGFR (T790M/L858R); experiment: Growth inhibition, NCI-H1975 expressing EGFR (T790M/L858R); format: cell-based; conditions: Homo sapiens, NCI-H1975, 72 h; cultured three days, CellTiter-Glo
Summary of the method: as §1

EGFR (WT) = target: T2, EGFR (WT) (Homo sapiens, UniProt P00533); experiment: EGFR (WT) kinase inhibitory activity; format: biochemical; conditions: substrate peptide 500 nM
T2 construct: expressing a cytoplasmic domain of human EGFR (WT) with its N-terminus fused to a FLAG tag; FLAG (N); made in house; host or cells: insect Sf9 cells, baculovirus expression system
Summary of the method: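 The kinase was the cytoplasmic domain of human EGFR WT, N-terminally FLAG-tagged, expressed in Sf9 cells via baculovirus and purified on anti-FLAG agarose. Phosphotyrosine was detected by Eu-PT66/APC-SA TR-FRET (665/620 nm ratio), and IC50 was fitted from % inhibition.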

EGFR (d746-750/T790M) = target: T3, EGFR (d746-750/T790M) (Homo sapiens, UniProt P00533, DEL746-750/T790M); experiment: EGFR (d746-750/T790M) kinase inhibitory activity; format: biochemical; conditions: ATP 1.5 μM
T3 construct: purchased Carna Biosciences, Inc
Summary of the method: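 Recombinant human EGFR d746-750/T790M phosphorylating biotinylated peptide (250 nM) with 1.5 μM ATP, 10 mM MgCl2 and MnCl2, 2.5% DMSO, 120 min at 25 °C. EDTA-stopped; phosphotyrosine detected by Eu-PT66/APC-SA TR-FRET (665/620 nm ratio). IC50 from percent inhibition curves, EDTA-first samples as background.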

EGFR (T790M/L858R) = target: T4, EGFR (T790M/L858R) (Homo sapiens, UniProt P00533, L858R/T790M); experiment: EGFR (T790M/L858R) kinase inhibitory activity; format: biochemical; conditions: ATP 1 μM, 25° C. for 120 minutes
T4 construct: purchased Carna Biosciences, Inc

EGFR (L858R) = target: T5, EGFR (L858R) (Homo sapiens, UniProt P00533, L858R); experiment: EGFR (L858R) kinase inhibitory activity; format: biochemical; conditions: ATP 4 μM
T5 construct: purchased Carna Biosciences, Inc
Summary of the method: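 Recombinant human EGFR (L858R) was incubated with 250 nM biotinylated peptide, 4 μM ATP, 10 mM MgCl2 and 10 mM MnCl2 in 2.5% DMSO for 120 min at 25 °C. The reaction was stopped with EDTA, and phosphotyrosine was detected by TR-FRET (Eu-PT66 antibody/APC-SA, 665/620 nm ratio). IC50 was obtained from the inhibition curves.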

T1 sequence (P00533 with tags, fused parts or gaps DEL746-750 limits assumed): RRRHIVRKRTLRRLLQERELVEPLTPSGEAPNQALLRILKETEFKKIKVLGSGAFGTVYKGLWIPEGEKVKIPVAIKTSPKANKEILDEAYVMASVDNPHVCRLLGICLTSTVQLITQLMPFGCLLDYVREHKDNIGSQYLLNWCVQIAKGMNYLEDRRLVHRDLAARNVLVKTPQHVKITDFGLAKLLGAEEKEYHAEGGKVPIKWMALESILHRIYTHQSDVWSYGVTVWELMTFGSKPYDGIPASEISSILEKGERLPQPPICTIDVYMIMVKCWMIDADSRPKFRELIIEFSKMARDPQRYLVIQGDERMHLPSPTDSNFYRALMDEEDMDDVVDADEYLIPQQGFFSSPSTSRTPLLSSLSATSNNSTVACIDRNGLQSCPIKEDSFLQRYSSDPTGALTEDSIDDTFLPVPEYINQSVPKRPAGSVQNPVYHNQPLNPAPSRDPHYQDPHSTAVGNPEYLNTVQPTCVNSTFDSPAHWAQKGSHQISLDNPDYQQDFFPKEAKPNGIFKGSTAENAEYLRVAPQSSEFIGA
T3 sequence (P00533 with tags, fused parts or gaps DEL746-750/T790M limits assumed): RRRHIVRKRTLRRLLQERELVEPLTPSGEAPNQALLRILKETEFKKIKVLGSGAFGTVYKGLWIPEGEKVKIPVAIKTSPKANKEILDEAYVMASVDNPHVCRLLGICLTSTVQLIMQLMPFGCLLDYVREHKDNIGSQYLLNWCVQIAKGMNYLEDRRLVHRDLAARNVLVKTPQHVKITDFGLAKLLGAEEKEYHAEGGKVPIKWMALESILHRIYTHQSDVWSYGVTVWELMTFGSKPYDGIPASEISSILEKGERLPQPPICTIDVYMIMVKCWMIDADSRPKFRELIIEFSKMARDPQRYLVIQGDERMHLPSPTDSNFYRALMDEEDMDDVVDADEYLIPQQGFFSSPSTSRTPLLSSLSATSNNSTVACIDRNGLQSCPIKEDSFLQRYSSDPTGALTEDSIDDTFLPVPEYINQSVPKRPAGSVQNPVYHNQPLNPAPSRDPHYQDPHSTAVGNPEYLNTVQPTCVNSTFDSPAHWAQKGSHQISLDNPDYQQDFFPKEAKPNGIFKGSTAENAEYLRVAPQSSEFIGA
T4 sequence (P00533 25-1210 T790M/L858R): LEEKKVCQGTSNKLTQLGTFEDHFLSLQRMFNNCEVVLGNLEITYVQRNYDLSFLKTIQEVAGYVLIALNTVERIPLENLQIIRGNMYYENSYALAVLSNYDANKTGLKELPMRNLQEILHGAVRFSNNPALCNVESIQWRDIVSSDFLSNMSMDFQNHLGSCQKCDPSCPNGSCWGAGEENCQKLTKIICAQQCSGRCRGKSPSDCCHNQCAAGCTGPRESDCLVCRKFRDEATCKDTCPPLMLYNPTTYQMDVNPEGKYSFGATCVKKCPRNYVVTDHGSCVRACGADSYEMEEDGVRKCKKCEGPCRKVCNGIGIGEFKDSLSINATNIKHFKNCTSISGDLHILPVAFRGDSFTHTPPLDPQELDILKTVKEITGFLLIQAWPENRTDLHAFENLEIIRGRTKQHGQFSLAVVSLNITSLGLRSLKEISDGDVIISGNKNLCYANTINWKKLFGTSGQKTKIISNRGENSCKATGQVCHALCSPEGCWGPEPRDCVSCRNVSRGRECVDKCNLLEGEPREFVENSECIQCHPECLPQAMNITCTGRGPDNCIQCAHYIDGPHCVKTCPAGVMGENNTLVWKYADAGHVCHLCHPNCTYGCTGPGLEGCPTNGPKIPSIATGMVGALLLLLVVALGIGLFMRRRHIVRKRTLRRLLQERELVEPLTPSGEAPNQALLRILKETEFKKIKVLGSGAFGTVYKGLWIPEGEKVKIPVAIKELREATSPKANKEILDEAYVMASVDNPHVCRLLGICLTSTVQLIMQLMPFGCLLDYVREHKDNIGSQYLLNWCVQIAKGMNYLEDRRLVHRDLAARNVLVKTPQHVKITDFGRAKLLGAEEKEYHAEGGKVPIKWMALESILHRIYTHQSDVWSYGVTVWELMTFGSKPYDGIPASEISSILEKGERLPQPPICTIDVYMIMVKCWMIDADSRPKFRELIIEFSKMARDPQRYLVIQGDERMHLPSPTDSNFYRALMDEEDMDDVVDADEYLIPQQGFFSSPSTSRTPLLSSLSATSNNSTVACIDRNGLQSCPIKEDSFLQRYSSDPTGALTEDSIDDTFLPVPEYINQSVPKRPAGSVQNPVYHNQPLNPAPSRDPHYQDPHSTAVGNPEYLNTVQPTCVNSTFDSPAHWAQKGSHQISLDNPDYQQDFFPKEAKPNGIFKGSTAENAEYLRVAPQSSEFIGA
T5 sequence (P00533 25-1210 L858R): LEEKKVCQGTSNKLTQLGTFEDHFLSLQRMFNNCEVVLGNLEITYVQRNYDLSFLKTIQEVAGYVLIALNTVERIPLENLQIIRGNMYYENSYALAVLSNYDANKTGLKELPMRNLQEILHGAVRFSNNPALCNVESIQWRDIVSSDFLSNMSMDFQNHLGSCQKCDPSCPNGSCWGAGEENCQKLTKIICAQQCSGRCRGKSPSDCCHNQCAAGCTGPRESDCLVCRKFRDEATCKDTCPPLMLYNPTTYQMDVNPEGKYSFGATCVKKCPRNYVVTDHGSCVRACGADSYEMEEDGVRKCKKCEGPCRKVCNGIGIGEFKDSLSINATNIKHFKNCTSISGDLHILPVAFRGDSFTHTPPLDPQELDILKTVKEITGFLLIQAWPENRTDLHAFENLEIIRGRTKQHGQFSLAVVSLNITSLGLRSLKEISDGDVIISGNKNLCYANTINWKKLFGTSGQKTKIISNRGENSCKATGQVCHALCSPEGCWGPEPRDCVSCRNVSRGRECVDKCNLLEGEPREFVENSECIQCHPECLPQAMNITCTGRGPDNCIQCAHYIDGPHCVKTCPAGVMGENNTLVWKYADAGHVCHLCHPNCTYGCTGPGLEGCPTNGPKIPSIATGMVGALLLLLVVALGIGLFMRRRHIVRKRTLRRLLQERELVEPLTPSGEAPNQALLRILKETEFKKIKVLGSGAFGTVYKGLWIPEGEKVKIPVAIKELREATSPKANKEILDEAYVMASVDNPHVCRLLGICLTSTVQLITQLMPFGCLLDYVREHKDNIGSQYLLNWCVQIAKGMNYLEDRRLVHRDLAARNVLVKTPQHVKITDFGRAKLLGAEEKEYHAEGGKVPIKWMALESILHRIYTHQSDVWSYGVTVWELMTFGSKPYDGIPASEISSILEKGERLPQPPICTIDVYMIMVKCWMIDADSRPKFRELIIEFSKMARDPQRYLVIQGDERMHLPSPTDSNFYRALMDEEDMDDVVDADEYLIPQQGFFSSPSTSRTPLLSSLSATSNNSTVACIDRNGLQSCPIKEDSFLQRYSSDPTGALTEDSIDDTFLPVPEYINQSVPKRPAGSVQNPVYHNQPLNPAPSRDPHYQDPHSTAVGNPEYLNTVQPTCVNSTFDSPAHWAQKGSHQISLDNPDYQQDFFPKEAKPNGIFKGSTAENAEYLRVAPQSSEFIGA
T2 sequence (P00533 669-1210 limits assumed): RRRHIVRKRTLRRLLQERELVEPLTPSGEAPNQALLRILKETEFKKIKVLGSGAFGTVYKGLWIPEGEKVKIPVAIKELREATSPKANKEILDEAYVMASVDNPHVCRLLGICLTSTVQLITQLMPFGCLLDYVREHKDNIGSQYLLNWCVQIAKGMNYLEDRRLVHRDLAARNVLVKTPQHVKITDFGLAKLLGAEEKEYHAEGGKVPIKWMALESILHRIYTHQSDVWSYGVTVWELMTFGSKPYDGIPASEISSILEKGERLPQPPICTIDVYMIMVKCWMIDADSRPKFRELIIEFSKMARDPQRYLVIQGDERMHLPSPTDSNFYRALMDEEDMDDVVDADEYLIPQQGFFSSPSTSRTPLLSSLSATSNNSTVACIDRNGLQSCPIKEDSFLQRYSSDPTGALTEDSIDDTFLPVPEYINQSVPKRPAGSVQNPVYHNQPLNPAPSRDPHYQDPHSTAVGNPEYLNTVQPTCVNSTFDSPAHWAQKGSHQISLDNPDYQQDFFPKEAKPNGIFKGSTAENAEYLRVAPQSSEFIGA

With `C=CC(=O)N(C)[C@@H]1CC(=C)c2c(-c3cnc4ccccc4c3)c3c(N)ncnc3n2C1` [Example 22, (R)—N-(4-amino-6-methylene-5-(quinolin-3-yl)-6,7,8,9-tetrahydropyrimido[5,4-b]indolizin-8-yl)-N-methylacrylamide] the IC50 (EGFR (d746-750)) was 0.33 nM, the GI50 [1] was 1500 nM and the GI50 [2] was 5.7 nM. It also gave a GI50 [3] of 56 nM, an IC50 (EGFR (WT)) of 5.5 nM and an IC50 (EGFR (d746-750/T790M)) of 0.23 nM. For the same molecule, the IC50 (EGFR (T790M/L858R)) was 0.35 nM and the IC50 (EGFR (L858R)) was 0.37 nM.

Work on `C=CC(=O)N(C)[C@@H]1C=C(C)c2c(-c3cnc4ccccc4c3)c3c(N)ncnc3n2C1` [Example 23, (R)—N-(4-amino-6-methyl-5-(quinolin-3-yl)-8,9-dihydropyrimido[5,4-b]indolizin-8-yl)-N-methylacrylamide] yielded an IC50 (EGFR (d746-750)) of 0.29 nM, a GI50 [1] of 5100 nM and a GI50 [2] of 3.3 nM. It also gave a GI50 [3] of 47 nM, an IC50 (EGFR (WT)) of 7.3 nM and an IC50 (EGFR (d746-750/T790M)) of 0.3 nM. For the same molecule, the IC50 (EGFR (T790M/L858R)) was 0.44 nM and the IC50 (EGFR (L858R)) was 0.63 nM.

`C=CC(=O)N[C@@H]1Cn2c(c(-c3cnc4ccccc4c3)c3c(N)ncnc32)C1C` (stereo partly drawn) [Example 24, N-((7S)-4-amino-6-methyl-5-(quinolin-3-yl)-7,8-dihydro-6H-pyrimido[5,4-b]pyrrolizin-7-yl)acrylamide] showed an IC50 (EGFR (d746-750)) of 0.85 nM, a GI50 [1] of 3400 nM and a GI50 [2] of 4.9 nM. The GI50 [3] was 110 nM, the IC50 (EGFR (WT)) was 8.6 nM and the IC50 (EGFR (d746-750/T790M)) was 0.31 nM. It also gave an IC50 (EGFR (T790M/L858R)) of 0.83 nM and an IC50 (EGFR (L858R)) of 1.1 nM.
